# Source: the supplement of paper PMC11208160
# Test: recombinant UMI read abundance after kanamycin selection (control-corrected) (log10(CPM+1)); higher = more efficient recombination; extreme values may be limits of the assay; sequences stand for … in AGTGCAGAGAAAATCGGCCAGTTTTCTCTGCCTGCAGTCCGCATGCCGTGGGACCCCTTGGGTTCTAACCTGTTGCCTAGATTTATGCAGCGGACTGCCTTTCTCCCAAAGTGATAAACCGG…AGGTTGGTTTCACT; site = the 11-nt donor
# Method in brief: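 Counts of recombinant UMIs were reported as log10(CPM+1). Before that, they were converted to CPM, averaged over replicates and scaled using control-derived factors. They came from PCR across the donor–target junction after Escherichia coli carrying the pair library and target plasmid was plated on IPTG (0.07 mM) plus kanamycin, or unselected, in two replicates each.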
# 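Note: IS621 bridge recombinase in Escherichia coli cells against a fixed T5 target plasmid.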
row,Sequence,recombinant UMI read abundance (log10)
1,CTCCGTACATGGACCGGTTTTCCCGGTAATCCGTATTTGCT (site CCCCGTACTAG),1.28
2,CTCCGTACATGGACCGGTTTTCCCGGTAATCCGTATTTGCT (site CGCCGTACTAG),0.00286
3,CTCCGTACATGGACCGGTTTTCCCGGTAATCCGTATTTGCT (site CTCCGTACTAG),1.45
4,CTCCTGTCATGGACCGGTTTTCCCGGTAATCCGTATTTGAC (site CTCCTGTCTGT),0
5,CTCGCGGCATGGACCGGTTTTCCCGGTAATCCGTATTTGCC (site CTCGCGGCTGG),0
6,CTCGCTACATGGACCGGTTTTCCCGGTAATCCGTATTTGCA (site CTCGCTACTTG),2.41
7,CTCGCTCCATGGACCGGTTTTCCCGGTAATCCGTATTTGAG (site CTCGCTCCTCT),0.0649
8,CTCGTAACATGGACCGGTTTTCCCGGTAATCCGTATTTGAC (site CTAGTATCTGT),0.0113
9,CTCGTAACATGGACCGGTTTTCCCGGTAATCCGTATTTGAC (site CTCGTAACTGT),2.56
10,CTCGTATCATGGACCGGTTTTCCCGGTAATCCGTATTTGAC (site CTAGTATCTGT),0.00452
11,CTCGTATCATGGACCGGTTTTCCCGGTAATCCGTATTTGAC (site CTCGTATCTGT),2.6
12,CTCGTATCATGGACCGGTTTTCCCGGTAATCCGTATTTGAC (site CTGGTATCTGT),0
13,CTCGTATCATGGACCGGTTTTCCCGGTAATCCGTATTTGAC (site CTTGTATCTGT),0
14,CTCTAAACATGGACCGGTTTTCCCGGTAATCCGTATTTGCT (site CTCTAAACTAG),2.06
15,CTCTAAACATGGACCGGTTTTCCCGGTAATCCGTATTTGCT (site CTCTACACTAG),0.676
16,CTCTAAACATGGACCGGTTTTCCCGGTAATCCGTATTTGCT (site CTCTAGACTAG),0.36
17,CTCTAAACATGGACCGGTTTTCCCGGTAATCCGTATTTGCT (site CTCTATACTAG),0
18,CTCTATACATGGACCGGTTTTCCCGGTAATCCGTATTTGCT (site CTCTAAACTAG),0
19,CTCTATACATGGACCGGTTTTCCCGGTAATCCGTATTTGCT (site CTCTACACTAG),0.592
20,CTCTATACATGGACCGGTTTTCCCGGTAATCCGTATTTGCT (site CTCTAGACTAG),0
21,CTCTATACATGGACCGGTTTTCCCGGTAATCCGTATTTGCT (site CTCTATACTAG),2.08
22,CTCTCTACATGGACCGGTTTTCCCGGTAATCCGTATTTGAG (site CTCACTACTCT),0.0192
23,CTCTCTACATGGACCGGTTTTCCCGGTAATCCGTATTTGAG (site CTCCCTACTCT),0.00919
24,CTCTCTACATGGACCGGTTTTCCCGGTAATCCGTATTTGAG (site CTCGCTACTCT),0.00461
25,CTCTCTACATGGACCGGTTTTCCCGGTAATCCGTATTTGAG (site CTCTCTACTCT),0.0107

row,Sequence,recombinant UMI read abundance (log10)
1,CTCTGTTCATGGACCGGTTTTCCCGGTAATCCGTATTTGCC (site CTCTGTTCTGG),1.45
2,CTCTTCACATGGACCGGTTTTCCCGGTAATCCGTATTTGGC (site CTCTTCACTGC),2.73
3,CTGAAAACATGGACCGGTTTTCCCGGTAATCCGTATTTGCA (site CTGAAAACTTG),1.48
4,CTGAAAACATGGACCGGTTTTCCCGGTAATCCGTATTTGCA (site CTGCAAACTTG),0
5,CTGAAAACATGGACCGGTTTTCCCGGTAATCCGTATTTGCA (site CTGGAAACTTG),0
6,CTGAAAACATGGACCGGTTTTCCCGGTAATCCGTATTTGCA (site CTGTAAACTTG),0
7,CTGAATCCATGGACCGGTTTTCCCGGTAATCCGTATTTGTT (site CAGAATCCTAA),0.0107
8,CTGAATCCATGGACCGGTTTTCCCGGTAATCCGTATTTGTT (site CCGAATCCTAA),0
9,CTGAATCCATGGACCGGTTTTCCCGGTAATCCGTATTTGTT (site CGGAATCCTAA),0
10,CTGAATCCATGGACCGGTTTTCCCGGTAATCCGTATTTGTT (site CTGAATCCTAA),1.5
11,CTGAATGCATGGACCGGTTTTCCCGGTAATCCGTATTTGTT (site CGGAATCCTAA),0.00219
12,CTGAATGCATGGACCGGTTTTCCCGGTAATCCGTATTTGTT (site CTGAATGCTAA),1.94
13,CTGCATACATGGACCGGTTTTCCCGGTAATCCGTATTTGTA (site CTGCATACTTA),1.59
14,CTGCCGACATGGACCGGTTTTCCCGGTAATCCGTATTTGCG (site CTGCCGACTCG),1.83
15,CTGCTAACATGGACCGGTTTTCCCGGTAATCCGTATTTGGA (site CTACTAACTTC),1.16
16,CTGCTAACATGGACCGGTTTTCCCGGTAATCCGTATTTGGA (site CTCCTAACTTC),0.394
17,CTGCTAACATGGACCGGTTTTCCCGGTAATCCGTATTTGGA (site CTGCTAACTTC),1.62
18,CTGCTAACATGGACCGGTTTTCCCGGTAATCCGTATTTGGA (site CTTCTAACTTC),0.563
19,CTGCTCACATGGACCGGTTTTCCCGGTAATCCGTATTTGCC (site CTGCTCACTGG),2.59
20,CTGGAGTCATGGACCGGTTTTCCCGGTAATCCGTATTTGCC (site CAGGAGTCTGG),2.88
21,CTGGAGTCATGGACCGGTTTTCCCGGTAATCCGTATTTGCC (site CCGGAGTCTGG),1.26
22,CTGGAGTCATGGACCGGTTTTCCCGGTAATCCGTATTTGCC (site CGGGAGTCTGG),0
23,CTGGAGTCATGGACCGGTTTTCCCGGTAATCCGTATTTGCC (site CTGGAGTCTGG),2.84
24,CTGGCATCATGGACCGGTTTTCCCGGTAATCCGTATTTGAC (site CTAGTATCTGT),0
25,CTGGCATCATGGACCGGTTTTCCCGGTAATCCGTATTTGAC (site CTGGCATCTGT),1.53

row,Sequence,recombinant UMI read abundance (log10)
1,CTGGCTCCATGGACCGGTTTTCCCGGTAATCCGTATTTGGC (site CTGGCTCCTGC),0.763
2,CTGGCTGCATGGACCGGTTTTCCCGGTAATCCGTATTTGGT (site CTGGCTGCTAC),1.7
3,CTGGGCACATGGACCGGTTTTCCCGGTAATCCGTATTTGAG (site CTGGGCACTCT),0.567
4,CTGGTAGCATGGACCGGTTTTCCCGGTAATCCGTATTTGAC (site CTAGTATCTGT),1.68
5,CTGGTAGCATGGACCGGTTTTCCCGGTAATCCGTATTTGAC (site CTGGTAGCTGT),2.85
6,CTGGTGGCATGGACCGGTTTTCCCGGTAATCCGTATTTGTT (site CTGGTGGCTAA),0.723
7,CTGGTTTCATGGACCGGTTTTCCCGGTAATCCGTATTTGAC (site CTAGTATCTGT),0.542
8,CTGGTTTCATGGACCGGTTTTCCCGGTAATCCGTATTTGAC (site CTGGTTTCTGT),1.87
9,CTGTAATCATGGACCGGTTTTCCCGGTAATCCGTATTTGTG (site CTGTAATCTCA),2.52
10,CTGTACACATGGACCGGTTTTCCCGGTAATCCGTATTTGCT (site CTATACACTAG),2.55
11,CTGTACACATGGACCGGTTTTCCCGGTAATCCGTATTTGCT (site CTCTACACTAG),1.52
12,CTGTACACATGGACCGGTTTTCCCGGTAATCCGTATTTGCT (site CTGTACACTAG),2.51
13,CTGTACACATGGACCGGTTTTCCCGGTAATCCGTATTTGCT (site CTTTACACTAG),0.828
14,CTGTACGCATGGACCGGTTTTCCCGGTAATCCGTATTTGTC (site CTGTACGCTGA),2.56
15,CTGTCGCCATGGACCGGTTTTCCCGGTAATCCGTATTTGCA (site CTGTCGCCTTG),0
16,CTGTCGTCATGGACCGGTTTTCCCGGTAATCCGTATTTGTG (site CTGTCGTCTCA),0.831
17,CTGTGACCATGGACCGGTTTTCCCGGTAATCCGTATTTGTA (site CTGTGACCTTA),0.00405
18,CTGTGCCCATGGACCGGTTTTCCCGGTAATCCGTATTTGAG (site CTGTGCCCTCT),0.0219
19,CTGTGCCCATGGACCGGTTTTCCCGGTAATCCGTATTTGCC (site CTGTGCCCTGG),1.34
20,CTGTTAGCATGGACCGGTTTTCCCGGTAATCCGTATTTGTG (site CAGTTAGCTCA),0.669
21,CTGTTAGCATGGACCGGTTTTCCCGGTAATCCGTATTTGTG (site CCGTTAGCTCA),0.102
22,CTGTTAGCATGGACCGGTTTTCCCGGTAATCCGTATTTGTG (site CGGTTAGCTCA),0.0126
23,CTGTTAGCATGGACCGGTTTTCCCGGTAATCCGTATTTGTG (site CTGTTAGCTCA),2.07
24,CTGTTCGCATGGACCGGTTTTCCCGGTAATCCGTATTTGTA (site CTGTTCGCTTA),2.09
25,CTGTTGCCATGGACCGGTTTTCCCGGTAATCCGTATTTGAC (site CTGTTGCCTGT),0
